Where no end group is shown, it is not given here.
Assays:
cynomolgus monkeys = test: ELISA antibody titers, monkey study No.00213519; type: in vivo, Macaca fascicularis; conditions: monkey 2nd set, 25, 100, 250 µg on days 1, 15, 29, 43, serum days 29, 43, 57, APi2568 as capture
Procedure: The non-human primate studies were carried out by the Charles River Laboratories (Ashland, OH USA). All the cynomolgus monkeys (Macaca fascicularis of Chinese origin) were obtained from Charles River Laboratories (Houston, TX, USA). In brief, the animals were approximately 2–4 years old and at the body weight between 2.2 and 3.1 kg at the initial dosing. The animals were kept at the temperature between 19°C and 24°C, humidity 30%–70%, and with 12 h light and 12 h dark light cycle. The Good manufacturing practice (GMP)-manufactured vaccine was used in the non-human primate study. […] Similar to mouse and dog dosing preparation, after the emulsion was prepared, a drop test was performed on each time of dosing to confirm that the emulsion had been prepared properly. […] All the animals’ body weights were monitored weekly after receiving. […]
Enzyme-linked immunosorbent assay (ELISA) was performed per our lab standard procedure. […] After washing, the antibody was detected using 50 μl of 0.15% H2O2 in 24 mM of citric acid and 5 mM of the sodium phosphate buffer (pH5.2) with 0.5 mg/ml 2, […] (3-ethylbenzthiazole- 6-sulfonic acid, ABTS; Sigma, St. Louis, MO, USA) as the chromophore. […] Absorbance was read at 415 nm using an ELISA microplate reader (SPECTRAmax PLUS384; Molecular Devices, San Jose, CA, USA). The highest dilution at the cutoff absorbance 0.2 were determined as the antibody titer. […]

[1] = target: T1, recombinant human PD-1 (rhPD-1) (Homo sapiens, UniProt Q15116); test: ELISA of monkey serum with rhPD-1 as capture agent; type: binding; conditions: monkey sera
T1 construct: His tag; purchased ACROBiosystems PD1-H5221
Procedure: For the detection of PD-1 human recombinant protein activity, the human recombinant protein PD-1 (PD1-H5221, HIS tag; ACROBiosystems, Newark, DE, USA) 100 μl at the concentration of […] were coated on the 96 wells plate as an antigen. The following procedures were performed as the description of ELISA.
In a separate experiment, these monkey serum samples were tested using recombinant human PD-1 (rhPD-1) as the capture agent. […] See Table 2 for summary of mouse, dog, and non-human primate experiments.

nivolumab = conditions: surface plasmon resonance; cited from earlier work
Procedure: (§1) The PD-1 amino acids 92-110 (^92[…]^101[…]^110) chosen for evaluation were selected based on the crystal structure of PD-1:PD-L1. This PD-1 sequence was synthesized as a chimeric construct with a promiscuous T-cell helper epitope derived from the measles virus fusion protein (MVF, amino acids 288-302). The specificity of the selected PD-1 peptide was determined by surface plasmon resonance spectroscopy.

rhPD-L1 = conditions: surface plasmon resonance; cited from earlier work
Procedure: as §1

T1 sequence (Q15116 25-288): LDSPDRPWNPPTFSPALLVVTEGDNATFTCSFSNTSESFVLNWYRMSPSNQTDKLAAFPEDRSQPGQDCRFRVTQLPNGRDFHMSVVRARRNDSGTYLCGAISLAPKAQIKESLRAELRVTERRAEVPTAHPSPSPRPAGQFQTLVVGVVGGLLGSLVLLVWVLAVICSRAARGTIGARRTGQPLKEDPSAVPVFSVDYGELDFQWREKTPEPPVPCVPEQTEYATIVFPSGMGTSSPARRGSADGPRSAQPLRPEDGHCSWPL

KLLSLIKGVIVHRLEGVEGPSLGAISLAPKAQIKESLRAEL [MVF-PD-1(92-110)]
anti-APi2568 antibody titers / immunogenicity (summary) (cynomolgus monkeys; listed as APi2568): high and were relatively uniform across sample collection days and between the APi2568 dose groups
anti-APi2568 antibody titers / immunogenicity (summary) (cynomolgus monkeys; listed as PD-1(92)): high immunogenicity
recognition of rhPD-1 by anti-APi2568 antibody in monkey serum (summary) ([1]; days 29, 43, 57): high binding ability against rh-PD-1
recognition of rhPD-1 by anti-APi2568 antibody in monkey serum (summary) ([1]; days 29, 43, 57, listed as APi2568): some of the anti-APi2568 antibody formed in monkeys recognized rhPD-1
recognize and bind nivolumab (nivolumab): able to recognize and bind
recognize and bind rhPD-L1 (rhPD-L1): able to recognize and bind
